Experimental data reported in US11691960B2, “2-[thiophen-2-yl)formamido]-N-(phenyl)-2-methylpropanamide derivatives and the use thereof as medicament” (Boehringer Ingelheim International GmbH, priority 2020, dated 2023).

Tests used:
[1] = biological target: human Factor Xa (Homo sapiens (Human), UniProt P00742); test: Assay C: human Factor Xa chromogenic substrate assay; assay type: biochemical; settings: for IC50: human Factor Xa 0.86 nM, chromogenic substrate S2765; for Selectivity Assay C/Assay A: ratio IC50 Factor Xa / IC50 IDO1
human Factor Xa, sequence (P00742 235-488): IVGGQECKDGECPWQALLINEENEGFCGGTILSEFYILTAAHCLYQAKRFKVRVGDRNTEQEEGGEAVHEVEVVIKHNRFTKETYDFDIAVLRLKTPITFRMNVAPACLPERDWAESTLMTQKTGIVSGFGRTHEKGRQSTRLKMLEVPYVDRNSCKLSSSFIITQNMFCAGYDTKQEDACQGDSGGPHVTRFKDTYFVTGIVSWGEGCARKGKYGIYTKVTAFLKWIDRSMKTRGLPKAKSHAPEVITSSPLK
human Factor Xa, sequence (P00742 41-179 partner): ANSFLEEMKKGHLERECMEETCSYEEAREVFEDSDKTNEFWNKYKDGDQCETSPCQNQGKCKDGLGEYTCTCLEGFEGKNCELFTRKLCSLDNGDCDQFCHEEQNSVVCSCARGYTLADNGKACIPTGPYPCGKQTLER
Experimental: Assay C. In Vitro Testing of Human Factor Xa Potency:
Measurement of active human Factor Xa using a specific chromogenic substrate which is labeled with a p-nitro-anilino group (pNA). The cleavage in between the binding of the peptide substrate and the pNA-group is followed by a color change, which can be detected at 405 nm. The amount of cleaved substrate is directly proportional to the amount of active Xa.
[…] (100 U) human Factor Xa (Enzyme Research Laboratories; HFXa1011) were solved in 0.444 ml H2O (Millipore), which accords to a stock solution of 19.28 μM or 225 U/ml. Further dilutions were made in the assay buffer (Tris 100 mM, NaCL 150 mM, adjusted to a pH of 7.8 with HCL, containing 0.1% BSA and 0.05% Tween20). 25 mg (1 vial) of the chromogenic substrate S2765 (Chromogenix; S2765) was solved in 3.5 ml H2O (Millipore) to achieve a stock solution of 10 mM.
Compounds were solved and diluted in DMSO where the final dilution in the assay is 1:10 resulting in a final concentration of 1% DMSO.
• the prefinal dilution step was 1:10 in the assay buffer containing 11% DMSO resulting in 10% DMSO • final dilution in the assay is 1:10 resulting in a final concentration of 1% DMSO
Compounds were tested at final concentrations of 10 μM to 0.003 nM or lower. 5 μl human factor Xa (final concentration 0.86 nM), 2 μl compound dilution or assay buffer (containing 10% DMSO) and 8 μl assay buffer were pipetted in triplicates into a 384-well plate and incubated in the Thermomix at 24° C. for 10 minutes.
After addition of 5 μl chromogenic substrate (final concentration 0.5 mM) the enzyme-substrate reaction started and the kinetic measurement with the SpectraMax Monochromator was started within 1-2 minutes. • Parameter of measurement: (Spectra ax, Monochromator) • Absorbance; 1.LM 405 nM • Kinetic: 16 min each 2nd minute (9 times) • Negative Control (NC) 5 μl human factor Xa+10 μl assay buffer+5 μl Substrate • Positive Control (PC): 5 μl human factor Xa+2 μl Nafamostat (commercially available, final concentration: 1 μM)+8 μl assay buffer+5 μl Substrate • Blank (optional): 15 μl assay buffer+5 μl Substrate
Calculation of IC50, KI and the % effect at the highest concentration (Ratio)
For the calculation the average of the Vmax-values in between 120 sec to 720 sec were taken.
A x/y-Plot was created: x=log (M, Compound); y=vmax (drfu/min)
The data were analyzed with the curve fitting model: log (inhibitor) vs. response—Variable slope (four parameters)
The results of this fit were Top, Bottom, Log (IC50, M), Hillslope and IC50 (M)

[2] = test system: human hepatocytes; test: Assay D: metabolic stability in human hepatocytes; assay type: in vitro ADME
Experimental: Assay D. Assessment of Metabolic Stability in Human Hepatocytes
The metabolic degradation of the test compound is assayed in a hepatocyte suspension. After recovery from cryopreservation, human hepatocytes are incubated in Dulbecco's modified eagle medium supplemented with 3.5 μg glucagon/500 mL, 2.5 mg insulin/500 mL and 3.75 mg/500 mL hydrocortisone) containing 5% or 50% human serum or in absence of serum.
Following a 30 min preincubation in a cell culture incubator (37° C., 10% CO2), 5 μl of test compound solution (80 μM; derived from a 2 mM DMSO stock solution by dilution 1:25 with medium) are added into 395 μl hepatocyte suspension, resulting in a final cell density of 1 Mio cells/mL, a final test compound concentration of 1 μM, and a final DMSO concentration of 0.05%.
The cells are incubated for six hours (incubator, orbital shaker) and samples (25 μl) are removed from the incubation after 0, 0.5, 1, 2, 4 and 6 hours. Samples are transferred into acetonitrile and pelleted by centrifugation (5 min). The supernatant is transferred to a new 96-deepwell plate, evaporated under nitrogen and resuspended prior to analysis of decline of parent compound by HPLC-MS/MS.
CLint is calculated as follows: CL_INTRINSIC=k/CD×1000/60 k: slope of the regression line for parent decline [h^−1], CD: cell density of vital cells [10e6 cells/mL],
The calculated in vitro hepatic intrinsic clearance is scaled up to the intrinsic in vivo hepatic Clearance and used to predict hepatic in vivo blood clearance (CL) by the use of a liver model (well stirred model): CL_INTRINSIC_INVIVO [ml/min/kg]=(CL_INTRINSIC [μL/min/10e6 cells]×hepatocellularity [10e6 cells/g liver]×liver factor [g/kg bodyweight])/1000 CL[ml/min/kg]=CL_INTRINSIC_INVIVO [ml/min/kg]×hepatic blood flow [ml/min/kg]/(CL_INTRINSIC_INVIVO[ml/min/kg]+hepatic blood flow [ml/min/kg])
Results are expressed as percentage of hepatic blood flow: QH[%]=CL[ml/min/kg]/hepatic blood flow [ml/min/kg])
Hepatocellularity, human: 120×10e6 cells/g liver
Liver factor, human: 25.7 g/kg bodyweight
Blood flow, human: 20.7 ml/(min×kg)

CC(C)(NC(=O)c1ccc(Cl)s1)C(=O)Nc1ccc(Cl)c(F)c1 [Example 3, 2-[(5-chlorothiophen-2-yl)formamido]-N-(4-chloro-3-fluorophenyl)-2-methylpropanamide]
IC50 [1]: > 10 µM
Selectivity Assay C/Assay A [1]: >55
metabolic stability in human hepatocytes (in words) [2]: metabolically stable

CC(C)(NC(=O)c1ccc(Cl)s1)C(=O)Nc1ccc(Br)cc1 [Example 4, 2-[(5-chlorothiophen-2-yl)formamido]-N-(4-bromophenyl)-2-methylpropanamide]
IC50 [1]: > 10 µM
Selectivity Assay C/Assay A [1]: >42
metabolic stability in human hepatocytes (in words) [2]: metabolically stable
